According to patent US8772302B2, “GPR 119 agonists” (Cadila Healthcare Limited, priority 2009, dated 2014):
pEC50: −log10 of the molar value. Read-outs that look alike come from different tables or passages of the source.

Experiments:
Sprague Dawley rats = test: Feed intake in Sprague Dawley rats; assay type: in vivo, rat; conditions: cumulative feed intake vs vehicle; for inhibition in vivo at 25 mg/kg: Rattus norvegicus, ip
Description: In Vivo Efficacy Studies: Feed Intake in Sprague Dawley Rats:
Sprague Dawley rats of 6-8 week age are used for this experiment they are kept for acclimatization in reversed light/dark cycle for 15 days. Animals will have free access to a standard chow diet and water during acclimatization period. After 15 days reversed light/dark cycle acclimatization animals are trained for fasting induced feed intake for 5 days till they show consistent feed intake. Grouping was done based on the monitored feed intake during the training days. On treatment day each group of animals are dosed with test compound or vehicle by appropriate routes of administration (orally or intraperitoneally). Exactly 30 min. after treatment, measured amount of standard chow diet is provided and recorded as O-min feed offered. Then subsequently 2, 4, 6 and 24 hour after O-min, feed intake is measured and the cumulative feed intakes are calculated. The change in cumulative feed intake as compared to vehicle treated control at each time point is calculated for test compound.

C57/BL6 mice = test: Oral glucose tolerance test (OGTT) in C57/BL6 mice; assay type: in vivo, mouse; conditions: serum glucose AUC, single oral dose, glucose load 3 gm/kg
Method: Oral Glucose Tolerance Tests (OGTT) in C57/BL6 Mice:
C57/BL6 mice of 6-8 week age are used for this experiment. Animals are grouped based on non-fasting serum glucose levels and kept on fasting for overnight (day before OGTT). On the experiment day, […], 30 min post dosing animals are bled for basal glucose level estimation and at the same time glucose load (3 gm/kg) will be administered per orally. Blood is collected at time points corresponding to 20, 40, 60 and 120 min after glucose load administration. Serum is separated for determination of glucose levels and change in area under curve for glucose is calculated and provided in table 4 as % reduction in AUC.

[1] = target: T1, recombinant human GPR 119 receptor (Homo sapiens, UniProt Q8TDV5); test: cAMP assay in stable cell line expressing recombinant human GPR 119 receptor; assay type: cell-based; conditions: intracellular cAMP
T1 construct: expressed in transfected cells
T1 sequence (Q8TDV5 1-335): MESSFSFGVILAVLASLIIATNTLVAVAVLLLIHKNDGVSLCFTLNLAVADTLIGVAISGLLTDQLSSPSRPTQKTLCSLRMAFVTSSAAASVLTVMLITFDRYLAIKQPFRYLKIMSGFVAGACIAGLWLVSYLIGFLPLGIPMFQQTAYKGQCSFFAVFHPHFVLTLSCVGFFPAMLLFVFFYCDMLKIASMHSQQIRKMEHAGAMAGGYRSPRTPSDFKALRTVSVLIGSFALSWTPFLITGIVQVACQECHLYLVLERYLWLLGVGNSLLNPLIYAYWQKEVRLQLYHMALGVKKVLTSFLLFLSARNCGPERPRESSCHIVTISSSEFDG
Description: cAMP assay: A stable cell line expressing recombinant human GPR 119 receptor was established and used to investigate the efficacy of the compounds of the invention based on the intracellular levels of cyclic AMP (cAMP) using commercially available cAMP kits. Compounds of the invention produced a concentration dependent increase in cAMP level and EC50 values of representative compounds were provided in table 1.

[2] = intraperitoneal, 25 mg/kg, 2 hour
[3] = intraperitoneal, 25 mg/kg, 4 hour
[4] = intraperitoneal, 25 mg/kg, 6 hour
[5] = intraperitoneal, 25 mg/kg, 24 hour

Compound | % reduction in food in take, 2 hour (Sprague Dawley rats; [2]) | % reduction in food in take, 4 hour (Sprague Dawley rats; [3]) | % reduction in food in take, 6 hour (Sprague Dawley rats; [4]) | % reduction in food in take, 24 hour (Sprague Dawley rats; [5]) | % reduction in food in take, 2 hour (Sprague Dawley rats; oral, 50 mg/kg, 2 hour) | % reduction in food in take, 4 hour (Sprague Dawley rats; oral, 50 mg/kg, 4 hour) | % reduction in food in take, 6 hour (Sprague Dawley rats; oral, 50 mg/kg, 6 hour) | % reduction in food in take, 24 hour (Sprague Dawley rats; oral, 50 mg/kg, 24 hour) | other results
CC(C)(C)OC(=O)N1CCC(c2nc(COc3ccc([C@H]4CO[S@@](=O)OC4)cc3)cs2)CC1 [Example 17, cis-tert-butyl 4-(4-((4-(2-oxido-1,3,2-dioxathian-5-yl)phenoxy)methyl)thiazol-2-yl)piperidine-1-carboxylate] | 34% | 34% | 24% | 13% |  |  |  |  | % reduction in AUC at 50 mg/kg (C57/BL6 mice): 34%
Cc1c(Oc2ccc([C@H]3CO[S@@](=O)OC3)cc2)ncnc1OC1CCN(c2ncccn2)CC1 [Example 5, cis-5-(4-((5-methyl-6-((1-(pyrimidin-2-yl)piperidin-4-yl)oxy)pyrimidin-4-yl)oxy)phenyl)-1,3,2-dioxathiane 2-oxide] | 35% | 17% | 21% | 8% |  |  |  |  | 
CCc1cnc(N2CCC(Oc3ncnc(Oc4ccc(C[C@H]5CO[S@@](=O)OC5)cc4)c3C)CC2)nc1 [Example 31, cis-5-(4-((6-((1-(5-ethylpyrimidin-2-yl)piperidin-4-yl)oxy)-5-methylpyrimidin-4-yl)oxy)benzyl)-1,3,2-dioxathiane 2-oxide] | 28% | 34% | 28% | 9% |  |  |  |  | 
Cc1c(Oc2ccc([C@H]3CO[S@@](=O)OC3)cc2)ncnc1OC1CCN(C(=O)OC(C)(C)C)CC1 [Example 15, cis-tert-butyl 4-((5-methyl-6-(4-(2-oxido-1,3,2-dioxathian-5-yl)phenoxy)pyrimidin-4-yl)oxy)piperidine-1-carboxylate] |  |  |  |  |  |  |  |  | inhibition in vivo at 25 mg/kg (Sprague Dawley rats; intraperitoneal, 25 mg/kg, 2 hour, read-out: % reduction in food in take, 2 hour): 47%; inhibition in vivo at 25 mg/kg (Sprague Dawley rats; intraperitoneal, 25 mg/kg, 4 hour, read-out: % reduction in food in take, 4 hour): 31%; inhibition in vivo at 25 mg/kg (Sprague Dawley rats; intraperitoneal, 25 mg/kg, 6 hour, read-out: % reduction in food in take, 6 hour): 28%; inhibition in vivo at 25 mg/kg (Sprague Dawley rats; intraperitoneal, 25 mg/kg, 24 hour, read-out: % reduction in food in take, 24 hour): 19%; pEC50 [1]: 8.38
CCc1cnc(N2CCC(Oc3ccc(C[C@H]4CO[S@@](=O)OC4)cc3)CC2)nc1 [Example 59, cis-5-(4-((1-(5-ethylpyrimidin-2-yl)piperidin-4-yl)oxy)benzyl)-1,3,2-dioxathiane 2-oxide] |  |  |  |  | 23% | 21% | 15% | 11% | 
Cc1c(OCCCC2CCN(C(=O)OC(C)(C)C)CC2)ncnc1Oc1ccc(C2COS(=O)OC2)cc1 (stereo not drawn) [Example 20, cis-tert-butyl 4-(3-((5-methyl-6-(4-(2-oxido-1,3,2-dioxathian-5-yl)phenoxy)pyrimidin-4-yl)oxy)propyl)piperidine-1-carboxylate] |  |  |  |  |  |  |  |  | % reduction in AUC at 50 mg/kg (C57/BL6 mice): 25%
CC(C)(C)OC(=O)N1CCC(c2nc(COc3ccc(C4COS(=O)OC4)cc3)cs2)CC1 (stereo not drawn) [Example 18, trans-tert-butyl 4-(4-((4-(2-oxido-1,3,2-dioxathian-5-yl)phenoxy)methyl)thiazol-2-yl)piperidine-1-carboxylate] |  |  |  |  |  |  |  |  | % reduction in AUC at 50 mg/kg (C57/BL6 mice): 11%
Cc1c(Oc2ccc(C[C@H]3CO[S@@](=O)OC3)cc2)ncnc1OC1CCN(c2nc(C(C)C)no2)CC1 [Example 29, cis-5-(4-((6-((1-(3-isopropyl-1,2,4-oxadiazol-5-yl)piperidin-4-yl)oxy)-5-methylpyrimidin-4-yl)oxy)benzyl)-1,3,2-dioxathiane 2-oxide] | 50% | 24% | 5% | 4% |  |  |  |  | 
Cc1c(Oc2ccc(C[C@H]3CO[S@@](=O)OC3)cc2Cl)ncnc1OC1CCN(C(=O)OC(C)(C)C)CC1 [Example 63, cis-tert-butyl 4-((6-(2-chloro-4-((2-oxido-1,3,2-dioxathian-5-yl)methyl)phenoxy)-5-methylpyrimidin-4-yl)oxy)piperidine-1-carboxylate] |  |  |  |  | 44% | 41% | 25% | 15% | % reduction in AUC at 50 mg/kg (C57/BL6 mice): 31%
Cc1c(Oc2ccc([C@H]3CO[S@@](=O)OC3)cc2)ncnc1OC1CCN(C(=O)OC(C)C)CC1 [Example 47, cis-isopropyl 4-((5-methyl-6-(4-(2-oxido-1,3,2-dioxathian-5-yl)phenoxy)pyrimidin-4-yl)oxy)piperidine-1-carboxylate] |  |  |  |  | 23% | 16% | 3% | 3% | 
Cc1c(Oc2ccc(C3COS(=O)OC3)cc2)ncnc1OC1CCN(C(=O)OC(C)C)CC1 (stereo not drawn) [Example 48, trans-isopropyl 4-((5-methyl-6-(4-(2-oxido-1,3,2-dioxathian-5-yl)phenoxy)pyrimidin-4-yl)oxy)piperidine-1-carboxylate] |  |  |  |  | 32% | 17% | 17% | 10% | 
Cc1c(Oc2ccc([C@H]3CO[S@@](=O)OC3)cc2)ncnc1OC1CCN(C(=O)Nc2ccc(Cl)cc2Cl)CC1 [Example 45, cis-N-(2,4-dichlorophenyl)-4-((5-methyl-6-(4-(2-oxido-1,3,2-dioxathian-5-yl)phenoxy)pyrimidin-4-yl)oxy)piperidine-1-carboxamide] |  |  |  |  | 28% | 28% | 16% | 7% | 
CC(C)(C)OC(=O)N1CCC(c2nc(COc3ccc(CC4COS(=O)OC4)cc3)cs2)CC1 (stereo not drawn) [Example 55, cis-tert-butyl 4-(4-((4-((2-oxido-1,3,2-dioxathian-5-yl)methyl)phenoxy)methyl)thiazol-2-yl)piperidine-1-carboxylate] |  |  |  |  | 33% | 5.3% |  |  | 
Cc1c(Oc2ccc(C[C@H]3CO[S@](=O)OC3)cc2)ncnc1OC1CCN(c2nc(C(C)C)no2)CC1 [Example 30, trans-5-(4-((6-((1-(3-isopropyl-1,2,4-oxadiazol-5-yl)piperidin-4-yl)oxy)-5-methylpyrimidin-4-yl)oxy)benzyl)-1,3,2-dioxathiane 2-oxide] | 39% | 31% | 5% | 9% |  |  |  |  | 
CCOC(=O)N1CCC(Oc2ncnc(Oc3ccc(C[C@H]4CO[S@@](=O)OC4)cc3)c2C)CC1 [Example 39, cis-ethyl 4-((5-methyl-6-(4-((2-oxido-1,3,2-dioxathian-5-yl)methyl)phenoxy)pyrimidin-4-yl)oxy)piperidine-1-carboxylate] |  |  |  |  |  |  |  |  | pEC50 [1]: 7.03
CCc1cnc(N2CCC(Oc3ccc(C[C@H]4CO[S@](=O)OC4)cc3)CC2)nc1 [Example 60, trans-5-(4-((1-(5-ethylpyrimidin-2-yl)piperidin-4-yl)oxy)benzyl)-1,3,2-dioxathiane 2-oxide] |  |  |  |  | 39% | 31% | 24% | 5.3% | 
